Results taken from patent publication US20230364121A1 (priority 2020, published 2023).
“And” between values parts separate entries of the source, which are not always exact repeats. Equal entries are not always repeated.

What was measured:
[1] = test system: SARS-CoV-2 viral genome; type: cell-based
[2] = target: T1, SARS-CoV-2 ExoN (nsp14/nsp10) (Severe acute respiratory syndrome coronavirus 2, UniProt P0DTD1); type: biochemical
T1 construct: 50 nM nsp14/nsp10 (1:5) were added for time-course reactions

Structure (SMILES) | number of mutations compared to virus control Vc [1] | resistance to ExoN mediated excision relative to an unmodified RNA 3′-end [2] [fold] | Mean number of mutations, transition A > G [1] | Mean number of mutations, transition C > T [1] | Mean number of mutations, transition G > A [1] | Mean number of mutations, transition T > C [1] | Number of Mutations, transition A > G [1] | Number of Mutations, transition C > T [1] | Number of Mutations, transition G > A [1] | Number of Mutations, transition T > C [1]
CC(C)C[C@H](NC(=O)OCc1ccccc1)C(=O)N[C@@H](C[C@@H]1CCNC1=O)C(O)S(=O)(=O)O (stereo partly shown) [GC376] | slight increase of the number of mutations |  |  |  |  |  |  |  |  | 
C[C@@]1(F)[C@H](O)[C@@H](COP(=O)(O)OP(=O)(O)OP(=O)(O)O)O[C@H]1n1ccc(=O)[nH]c1=O [STP, 5′-triphosphate 2′-fluoro-2′-C-methyl uridine] |  | ~1.2 |  |  |  |  |  |  |  | 
CC(C)C(=O)OC[C@H]1O[C@@H](n2ccc(NO)nc2=O)[C@H](O)[C@@H]1O [Molnupiravir, molnupiravir] | significant increase in the number of mutations |  | 842 | 592 | 385 | 910.5 | 813 and 871 | 602 and 582 | 385 | 932 and 889
C[C@@]1(F)[C@H](O)[C@@H](COP(=O)(O)OP(=O)(O)OP(=O)(O)O)O[C@H]1n1cnc2c(=O)[nH]c(N)nc21 [AT-9010, 2′-fluoro-2′-C-methylguanosine-5′-triphosphate] |  | ~4.8 |  |  |  |  |  |  |  | 
CC(C)C[C@H](NC(=O)OCc1ccccc1)C(=O)N[C@@H](CC1CCNC1=O)C(O)S(=O)(=O)[O-].[Na+] (stereo partly shown) [GC 376] |  |  | 465.5 | 62 | 14.5 | 532.5 | 545 and 368 | 51 and 73 |  | 662 and 403
CNc1nc(N)nc2c1ncn2[C@@H]1O[C@H](COP(=O)(N[C@@H](C)C(=O)OC(C)C)Oc2ccccc2)[C@@H](O)[C@@]1(C)F (stereo partly shown) [Compound 1A] | did not show an increased number of mutations |  | 429 | 24.5 | 6 | 473 | 454 and 404 | 22 and 27 | 7 and 5 | 489 and 457
